The values that follow come from BindingDB's records for doi:10.1021/cb700072n (University of New Mexico Health Sciences Center, 2007).

Test [1] has as its target G-protein coupled estrogen receptor 1 (Homo sapiens, UniProt Q99527). The test is described as follows: Competitive Binding Assay. As to the method:
(§1) Competitive binding of estrogen to GPR30 and ER alpha were conducted using COS-7 cells transfected with GPR30-GFP or ER alpha-GFP and fluorescent estrogen, E2-Alexa633 labeled as a reporter.

The next test has as its target T1, Estrogen receptor (Homo sapiens, UniProt P03372).
T1 sequence (P03372 whole entry): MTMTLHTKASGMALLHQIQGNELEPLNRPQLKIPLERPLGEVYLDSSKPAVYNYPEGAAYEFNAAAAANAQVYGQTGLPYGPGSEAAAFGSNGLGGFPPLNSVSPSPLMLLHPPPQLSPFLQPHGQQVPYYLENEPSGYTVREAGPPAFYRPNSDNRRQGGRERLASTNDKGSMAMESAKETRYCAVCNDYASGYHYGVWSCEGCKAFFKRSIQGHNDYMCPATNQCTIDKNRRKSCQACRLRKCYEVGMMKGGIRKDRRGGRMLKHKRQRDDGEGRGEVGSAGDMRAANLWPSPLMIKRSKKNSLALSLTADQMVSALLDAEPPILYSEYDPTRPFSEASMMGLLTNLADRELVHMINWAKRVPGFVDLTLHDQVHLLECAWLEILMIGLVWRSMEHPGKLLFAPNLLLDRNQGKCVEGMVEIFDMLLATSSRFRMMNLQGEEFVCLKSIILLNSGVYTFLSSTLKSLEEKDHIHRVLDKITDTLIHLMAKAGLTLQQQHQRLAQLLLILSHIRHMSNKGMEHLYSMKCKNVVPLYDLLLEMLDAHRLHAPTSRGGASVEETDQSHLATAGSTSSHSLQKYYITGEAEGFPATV
Description: Competitive Binding Assay. As to the method: as §1

G-protein coupled estrogen receptor 1, sequence (Q99527 whole entry): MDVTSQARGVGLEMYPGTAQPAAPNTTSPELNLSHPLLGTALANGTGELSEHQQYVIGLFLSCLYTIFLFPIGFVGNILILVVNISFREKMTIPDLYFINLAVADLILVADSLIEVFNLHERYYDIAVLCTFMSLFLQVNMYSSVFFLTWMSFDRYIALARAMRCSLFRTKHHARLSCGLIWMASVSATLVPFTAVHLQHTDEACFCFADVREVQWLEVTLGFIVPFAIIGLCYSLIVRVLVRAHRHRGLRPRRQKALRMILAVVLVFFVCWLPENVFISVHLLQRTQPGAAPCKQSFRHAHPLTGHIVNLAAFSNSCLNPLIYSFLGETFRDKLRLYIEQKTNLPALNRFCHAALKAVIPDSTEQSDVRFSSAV

The term Ki denotes a dissociation constant, usually derived from enzyme kinetics or from competition with a known ligand. High values mean weaker binding, low ones tighter binding. Turning to `C[C@]12CCC3c4ccc(O)cc4CCC3C1CC[C@@]2(O)C#Cc1cccc(C(=O)O)c1` (stereo partly drawn) [E2-COO-], the figures for the inhibition constant Ki (in test [1]; at Estrogen receptor) were 30 nM and 2 nM, respectively.
Regarding `CC(C)(C)OC(=O)NCc1ccc(C#C[C@]2(O)CCC3C4CCc5cc(O)ccc5C4CC[C@@]32C)cc1` (stereo partly drawn) [E2-NB], the Ki in test [1] is 16 nM; on Estrogen receptor, 2.7 nM.
On the same counts, the results for `C[C@]12CCC3c4ccc(O)cc4CCC3C1CC[C@@]2(O)C#Cc1ccc(CN)cc1` (stereo partly drawn) [E2-NH3+] are 25 nM and 4.1 nM.
On the same counts, the results for `C[C@]12CCC3c4ccc(O)cc4CCC3C1CC[C@@]2(O)C#Cc1ccc([N+](C)(C)C)cc1` (stereo partly drawn) [E2-NMe3+] are 17 nM and 1.4 nM.
